Active and inactive are the calls of the source. No cut-off for these calls is given here.
Experiments:
[1] = test system: HCT-116; assay: Induction of apoptosis in human HCT-116 assessed as late apoptotic cells at 1 uM pretreated with Z-VAD-FMK for 30 mins followed by compound addition and measured after 24 hrs by Annexin V-FITC/PI double staining based flow cytometry (reference value: 7.43 %); type: functional
[2] = test system: HCT-116; assay: Upregulation of autophagy pathway related genes expression in human HCT-116 cells at 1 uM incubated for 24 hrs by heat map analysis; type: functional, cell-based
[3] = test system: CT26; assay: Antitumor activity against mouse CT26 cells implanted in female BALB/c mouse assessed as reduction in Ki67 expression at 1 to 2 mg/kg administrated once every 3 days for 18 days by immunohistochemistry analysis; type: functional, organism-based; settings: dose 1-2 mg/kg, time 18.0 day
[4] = test system: HCT-116; assay: Inhibition of colony formation in ATG5 knockout human HCT-116 cells assessed as reduction in number of colonies at 1 to 4 uM measured after 24 hrs by crystal violet staining based analysis; type: functional, cell-based; settings: dose 1-4 µM
[5] = test system: HCT-116; assay: Induction of apoptosis in human HCT-116 cells assessed as effect on cleaved PARP expression level at 0.5 to 2 uM incubated for 24 hrs by Western blot analysis; type: functional, cell-based; settings: dose 0.5-2 µM
[6] = test system: HCT-116; assay: Antiproliferative activity against Bax knockout human HCT-116 cells assessed as inhibition of cell viability incubated for 24 hrs by CCK8 assay; type: functional, cell-based; settings: HCT-116, 24 h
[7] = Toxicity in female BALB/c mouse implanted with mouse CT26 cells assessed as change in body weight at 1 to 2 mg/kg administrated once every 3 days for 18 days; type: organism-based; settings: in vivo, 432 h, dose 1-2 mg/kg, time 18 day
[8] = test system: HCT-116; assay: Induction of apoptosis in human HCT-116 cells assessed as effect on cleaved caspase-3 expression level at 0.5 to 2 uM incubated for 24 hrs by Western blot analysis; type: functional, cell-based; settings: dose 0.5-2 µM
[9] = test system: HT-29; assay: Antiproliferative activity against human HT-29 cells assessed as inhibition of cell growth incubated for 48 hrs by MTT assay; type: functional, cell-based; settings: HT-29, 48 h

IC50 [6]: 2.76 µM | IC50 [9]: 2.65 µM
SMILES: CCN(CC)CCCNCc1cc2c3ccccc3n(CCCc3ccccc3)c2c(CNCCCN(CC)CC)n1
Activity [1]: 12.4% | Activity [2]: Active | Activity [3]: Active | inhibition [4]: Active; Insignificant Decrease In Number Of Colonies Observed | Activity [5]: inactive | Activity [7]: Non-toxic | Activity [8]: inactive

Reference: ChEMBL document CHEMBL6096670, “Design, synthesis and biological evaluation of novel β-carbolines as antitumor agents via targeting autophagy in colorectal cancer” (Eur J Med Chem, 2025)
